# Results as given in patent US10407381B2 (THE BOARD OF TRUSTEES OF THE UNIVERSITY OF ILLINOIS, priority 2015, dated 2019).
# Where two headings read alike, the source gives them in different places.
# How the values were obtained:
# 5-HT2B = 5-HT2B (Homo sapiens, UniProt P41595); assay: Calcium flux (FLIPR) assay, human 5-HT2B stably expressed in HEK-293 (Flp-In-293) cells; details: human 5-HT2B in HEK-293 cells; for EC50: EC50, nM 5-HT2B, NA = no activity at 10 μM; for Emax, % 5-HT 5-HT2B: normalized to 5-HT
# Chain of 5-HT2B (P41595 whole entry): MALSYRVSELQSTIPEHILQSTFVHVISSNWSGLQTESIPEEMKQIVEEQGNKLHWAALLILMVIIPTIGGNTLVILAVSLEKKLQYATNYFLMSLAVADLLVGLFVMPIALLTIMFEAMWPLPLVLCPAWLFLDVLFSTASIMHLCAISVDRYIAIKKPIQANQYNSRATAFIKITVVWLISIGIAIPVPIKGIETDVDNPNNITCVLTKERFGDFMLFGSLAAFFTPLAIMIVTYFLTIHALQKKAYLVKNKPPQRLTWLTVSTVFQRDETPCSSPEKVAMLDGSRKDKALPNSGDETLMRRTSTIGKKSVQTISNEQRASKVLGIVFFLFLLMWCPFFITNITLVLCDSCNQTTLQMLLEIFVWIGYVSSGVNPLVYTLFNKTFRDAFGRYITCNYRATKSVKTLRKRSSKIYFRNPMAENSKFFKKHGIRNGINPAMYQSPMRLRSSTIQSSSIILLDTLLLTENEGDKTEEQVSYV
# 5-HT2A = 5-HT2A (Homo sapiens, UniProt P28223); assay: Calcium flux (FLIPR) assay, human 5-HT2A stably expressed in HEK-293 (Flp-In-293) cells; details: human 5-HT2A in HEK-293 cells, FLIPR; for EC50: NA = no activity at 10 μM; for Emax, % 5-HT 5-HT2A: normalized to 5-HT
# Chain of 5-HT2A (P28223 whole entry): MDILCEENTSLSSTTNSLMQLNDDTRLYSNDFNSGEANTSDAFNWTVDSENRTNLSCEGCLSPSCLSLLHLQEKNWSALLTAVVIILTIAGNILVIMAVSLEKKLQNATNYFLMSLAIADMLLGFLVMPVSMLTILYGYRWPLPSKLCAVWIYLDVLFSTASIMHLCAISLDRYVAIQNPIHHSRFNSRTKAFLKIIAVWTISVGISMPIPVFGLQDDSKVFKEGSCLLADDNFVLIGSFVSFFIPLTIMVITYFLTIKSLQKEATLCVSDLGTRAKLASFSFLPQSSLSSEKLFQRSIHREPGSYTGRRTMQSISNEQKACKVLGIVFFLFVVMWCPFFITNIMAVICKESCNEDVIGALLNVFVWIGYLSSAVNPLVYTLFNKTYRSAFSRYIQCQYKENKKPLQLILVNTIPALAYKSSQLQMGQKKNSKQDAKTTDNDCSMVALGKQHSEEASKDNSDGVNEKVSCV
# human 5-HT2C-INI = biological target: T1, human 5-HT2C-INI (Homo sapiens, UniProt P28335); assay: Calcium flux (FLIPR) assay, human 5-HT2C-INI stably expressed in HEK-293 (Flp-In-293) cells; details: human 5-HT2C-INI in HEK-293 cells, FLIPR; for EC50: NA = no activity at 10 μM; for Emax, % 5-HT 5-HT2C: normalized to 5-HT
# T1 sequence (P28335 33-458): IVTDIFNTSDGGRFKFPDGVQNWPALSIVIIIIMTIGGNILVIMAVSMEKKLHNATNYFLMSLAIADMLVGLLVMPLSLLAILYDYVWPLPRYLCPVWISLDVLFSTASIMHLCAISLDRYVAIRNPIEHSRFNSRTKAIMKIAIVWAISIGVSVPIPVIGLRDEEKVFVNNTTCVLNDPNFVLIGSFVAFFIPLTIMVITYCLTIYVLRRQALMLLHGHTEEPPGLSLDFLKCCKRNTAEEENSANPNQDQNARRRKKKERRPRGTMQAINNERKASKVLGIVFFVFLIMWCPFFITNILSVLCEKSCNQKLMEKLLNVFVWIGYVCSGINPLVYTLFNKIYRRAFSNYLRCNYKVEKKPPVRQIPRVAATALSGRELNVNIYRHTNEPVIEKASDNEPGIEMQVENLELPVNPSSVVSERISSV
smiles,measurement,setting,value
"C#CCOc1cc(F)c(Cl)cc1C1CC1CN (single isomer, unassigned; (+)) [(+)-Example 6, (+)-(2-(5-Chloro-4-fluoro-2-(prop-2-yn-1-yloxy)phenyl)cyclopropyl)methanamine]",EC50,5-HT2B,1010 nM
same,"Emax, % 5-HT 5-HT2B",5-HT2B,(30%) % 5-HT
same,EC50,"5-HT2A; EC50, nM 5-HT2A",628 nM
same,"Emax, % 5-HT 5-HT2A",5-HT2A,(22%) % 5-HT
same,EC50,"human 5-HT2C-INI; EC50, nM 5-HT2C",67 nM
same,"Emax, % 5-HT 5-HT2C",human 5-HT2C-INI,(80%) % 5-HT
"C=C(F)COc1ccc(F)cc1C1CC1CN (single isomer, unassigned; (+)) [(+)-Example 9, (+)-(2-(5-Fluoro-2-((2-fluoroallyl)oxy)phenyl)cyclopropyl)methanamine]",EC50,"5-HT2A; EC50, nM 5-HT2A",1670 nM
same,"Emax, % 5-HT 5-HT2A",5-HT2A,(17%) % 5-HT
same,EC50,"human 5-HT2C-INI; EC50, nM 5-HT2C",22 nM
same,"Emax, % 5-HT 5-HT2C",human 5-HT2C-INI,(91%) % 5-HT
"COc1ccc(F)c(Cl)c1C1CC1CN (single isomer, unassigned; (-)) [(−)-Example 50, (−)-(2-(2-Chloro-3-fluoro-6-methoxyphenyl)cyclopropyl)methanamine]","Emax, % 5-HT 5-HT2A",5-HT2A,(72%) % 5-HT
same,EC50,"5-HT2A; read-out: EC50, nM 5-HT2A",119 nM
same,"Emax, % 5-HT 5-HT2C",human 5-HT2C-INI,(96%) % 5-HT
same,EC50,"human 5-HT2C-INI; read-out: EC50, nM 5-HT2C",3.2 nM
"C=CCOc1ccc(Cl)cc1C1CC1CN (single isomer, unassigned; (+)) [(+)-Example 23, (+)-(2-(2-(Allyloxy)-5-chlorophenyl)cyclopropyl)methanamine]",EC50,5-HT2B,2210 nM
same,"Emax, % 5-HT 5-HT2B",5-HT2B,(32%) % 5-HT
same,EC50,"human 5-HT2C-INI; EC50, nM 5-HT2C",60 nM
same,"Emax, % 5-HT 5-HT2C",human 5-HT2C-INI,(80%) % 5-HT
"C#CCOc1ccc(Cl)cc1C1CC1CN (single isomer, unassigned; (-)) [(−)-Example 26, (−)-(2-(5-Chloro-2-(prop-2-yn-1-yloxy)phenyl)cyclopropyl)methanamine]",EC50,5-HT2B,4410 nM
same,"Emax, % 5-HT 5-HT2B",5-HT2B,(30%) % 5-HT
same,EC50,"human 5-HT2C-INI; EC50, nM 5-HT2C",365 nM
same,"Emax, % 5-HT 5-HT2C",human 5-HT2C-INI,(71%) % 5-HT
"C=CCOc1cc(F)c(Cl)cc1C1CC1CN (single isomer, unassigned; (+)) [(+)-Example 5, (+)-(2-(2-(Allyloxy)-5-chloro-4-fluorophenyl)cyclopropyl)methanamine]",EC50,5-HT2B,1000 nM
same,"Emax, % 5-HT 5-HT2B",5-HT2B,(44%) % 5-HT
same,EC50,"human 5-HT2C-INI; EC50, nM 5-HT2C",42 nM
same,"Emax, % 5-HT 5-HT2C",human 5-HT2C-INI,(87%) % 5-HT
"NCC1CC1c1cc(Cl)ccc1OCCCF (single isomer, unassigned; (+)) [(+)-Example 20, (+)-(2-(5-Chloro-2-(3-fluoropropoxy)phenyl)cyclopropyl)methanamine]",EC50,5-HT2B,4910 nM
same,"Emax, % 5-HT 5-HT2B",5-HT2B,(22%) % 5-HT
same,EC50,"human 5-HT2C-INI; EC50, nM 5-HT2C",206 nM
same,"Emax, % 5-HT 5-HT2C",human 5-HT2C-INI,(60%) % 5-HT
"NCC1CC1c1c(OCCF)ccc(F)c1F (single isomer, unassigned; (-)) [(−)-Example 47, (−)-(2-(2,3-Difluoro-6-(2-fluoroethoxy)phenyl)cyclopropyl)methanamine]","Emax, % 5-HT 5-HT2B",5-HT2B,(29%) % 5-HT
same,EC50,"human 5-HT2C-INI; EC50, nM 5-HT2C",509 nM
same,"Emax, % 5-HT 5-HT2C",human 5-HT2C-INI,(78%) % 5-HT
"CCCOc1ccc(Cl)cc1C1CC1CN (single isomer, unassigned; (-)) [(−)-Example 12, (−)-(2-(5-Chloro-2-propoxyphenyl)cyclopropyl)methanamine]",EC50,5-HT2B,3000 nM
same,"Emax, % 5-HT 5-HT2B",5-HT2B,(21%) % 5-HT
same,EC50,"human 5-HT2C-INI; EC50, nM 5-HT2C",1230 nM
same,"Emax, % 5-HT 5-HT2C",human 5-HT2C-INI,(31%) % 5-HT
"NCC1CC1c1c(OCCF)ccc(Cl)c1Cl (single isomer, unassigned; (-)) [(−)-Example 38, (−)-(2-(2,3-Dichloro-6-(2-fluoroethoxy)phenyl)cyclopropyl)methanamine]",EC50,5-HT2B,10400 nM
same,"Emax, % 5-HT 5-HT2B",5-HT2B,(62%) % 5-HT
same,EC50,"human 5-HT2C-INI; EC50, nM 5-HT2C",224 nM
same,"Emax, % 5-HT 5-HT2C",human 5-HT2C-INI,(85%) % 5-HT
"NCC1CC1c1cc(Cl)ccc1OCCCF (single isomer, unassigned; (-)) [(−)-Example 20, (−)-(2-(5-Chloro-2-(3-fluoropropoxy)phenyl)cyclopropyl)methanamine]",EC50,5-HT2B,6170 nM
same,"Emax, % 5-HT 5-HT2B",5-HT2B,(22%) % 5-HT
same,EC50,"human 5-HT2C-INI; EC50, nM 5-HT2C",1260 nM
same,"Emax, % 5-HT 5-HT2C",human 5-HT2C-INI,(24%) % 5-HT
"NCC1CC1c1c(OCCF)ccc(Cl)c1F (single isomer, unassigned; (-)) [(−)-Example 31, (−)-(2-(3-Chloro-2-fluoro-6-(2-fluoroethoxy)phenyl)cyclopropyl)methanamine]","Emax, % 5-HT 5-HT2B",5-HT2B,(0%) % 5-HT
same,EC50,"human 5-HT2C-INI; EC50, nM 5-HT2C",386 nM
same,"Emax, % 5-HT 5-HT2C",human 5-HT2C-INI,(80%) % 5-HT
